Experimental data: US5321030A, “Creatine analogs having antiviral activity” (priority 1991, dated 1994)
Converted amounts (≈) assume the structure as drawn. Like-named read-outs stand apart in the source and are kept apart here.

Key:
[1] = tested on: Herpes Simplex Virus, Type 1, strain BW10168 (TK-); assay: microbe, parasite or virus in culture; format: cell-based; set-up: TI50 (CD50 ÷ ED50): unit not given beside the values; conditions: for Average CPE: virus controls 4.0
in vivo = format: in vivo; conditions: for survival: mouse, in vivo, read-out: Survivors/Total (%); for Weight Change: uninfected, combined animal weights day 0 to day 15
[2] = tested on: Pseudorabies virus, Aujeszky strain; format: cell-based; conditions: similar assay
in vitro = conditions: monkey, vero cells
[3] = tested on: herpes simplex virus type 2 (HSV-2), strain E194; assay: HSV-2 vaginitis in mice; format: in vivo, Swiss Webster female mice; conditions: for Mean Day to Death: virus infected
HSV-1 = assay: Cytopathic effect (CPE) assay, HSV-1
HSV-2 = assay: Cytopathic effect (CPE) assay, HSV-2; conditions: Human alphaherpesvirus 2, Vero, read-out: concentration required to inhibit cytopathogenicity by 60% or 70%

Structure (SMILES): Nc1nc2c(ncn2COCCO)c(=O)[nH]1 [acyclovir]
- Average CPE ([1]; Acyclovir 1.0 μg/ml): 4.0
- Average CPE ([1]; Acyclovir 3.2 μg/ml): 3.2
- Average CPE ([1]; Acyclovir 10 μg/ml): 1.5
- Average CPE ([1]; Acyclovir 32 μg/ml): 0.3
- Average CPE ([1]; Acyclovir 100 μg/ml): 0.5
- Average CPE ([1]; Acyclovir 316 μg/ml): 0.2
- Average CPE ([1]; Acyclovir 1000 μg/ml): 0
- EC50 ([1]; Human alphaherpesvirus 1, Vero, read-out: ED50, Vero cells, Table 8): 10.6 µg/mL (≈ 47.1 µM)
- TI50 (CD50 ÷ ED50) ([1]; Vero cells, Table 8): > 94
- survival (in vivo; 25 mg/kg): 100%
- survival (in vivo; 50 mg/kg): 100%
- survival (in vivo; 100 mg/kg): 100%
- survival (in vivo; 200 mg/kg): 100%
- Weight Change (in vivo; ACV 25 mg/kg): 2.8 g
- Weight Change (in vivo; ACV 50 mg/kg): 4.0 g
- Weight Change (in vivo; ACV 100 mg/kg): 3.5 g
- Weight Change (in vivo; ACV 200 mg/kg): 4.8 g
- effect against Pseudorabies virus [2]: ineffective
- CC50 (in vitro): > 1000 µg/mL
- average lesion score ([3]; 25 mg/kg/day gavage, Grand Ave. (Days 3-14)): 1.5 ± 0.6
- average lesion score ([3]; 25 mg/kg/day gavage, day 3): 0.1 ± 0.2
- average lesion score ([3]; 25 mg/kg/day gavage, day 5): 1.3 ± 1.5
- average lesion score ([3]; 25 mg/kg/day gavage, day 6): 1.3 ± 1.3
- average lesion score ([3]; 25 mg/kg/day gavage, day 7): 1.7 ± 1.6
- average lesion score ([3]; 25 mg/kg/day gavage, day 8): 2.1 ± 1.5
- average lesion score ([3]; 25 mg/kg/day gavage, day 9): 2.1 ± 1.4
- average lesion score ([3]; 25 mg/kg/day gavage, day 10): 2.0 ± 1.2
- average lesion score ([3]; 25 mg/kg/day gavage, day 11): 1.9 ± 1.3
- average lesion score ([3]; 25 mg/kg/day gavage, day 12): 1.9 ± 1.4
- average lesion score ([3]; 25 mg/kg/day gavage, day 13): 1.8 ± 1.5
- average lesion score ([3]; 25 mg/kg/day gavage, day 14): 1.8 ± 1.5
- average lesion score ([3]; 50 mg/kg/day gavage, Grand Ave. (Days 3-14)): 0.8 ± 0.3
- average lesion score ([3]; 50 mg/kg/day gavage, day 3): 0.0 ± 0.0
- average lesion score ([3]; 50 mg/kg/day gavage, day 4): 0.2 ± 0.3
- average lesion score ([3]; 50 mg/kg/day gavage, day 5): 1.0 ± 1.8
- average lesion score ([3]; 50 mg/kg/day gavage, day 6): 0.5 ± 0.7
- average lesion score ([3]; 50 mg/kg/day gavage, day 7): 0.8 ± 1.2
- average lesion score ([3]; 50 mg/kg/day gavage, day 8): 0.8 ± 0.9
- average lesion score ([3]; 50 mg/kg/day gavage, day 10): 0.9 ± 1.2
- average lesion score ([3]; 50 mg/kg/day gavage, day 11): 0.9 ± 1.2
- average lesion score ([3]; 50 mg/kg/day gavage, day 12): 0.9 ± 1.2
- average lesion score ([3]; 50 mg/kg/day gavage, day 14): 1.0 ± 1.3
- average lesion score ([3]; 100 mg/kg/day gavage, Grand Ave. (Days 3-14)): 0.7 ± 0.4
- average lesion score ([3]; 100 mg/kg/day gavage, day 3): 0.1 ± 0.2
- average lesion score ([3]; 100 mg/kg/day gavage, day 4): 0.2 ± 0.3
- average lesion score ([3]; 100 mg/kg/day gavage, day 5): 0.4 ± 0.4
- average lesion score ([3]; 100 mg/kg/day gavage, day 6): 0.5 ± 0.5
- average lesion score ([3]; 100 mg/kg/day gavage, day 7): 0.6 ± 0.7
- average lesion score ([3]; 100 mg/kg/day gavage, day 8): 0.8 ± 0.9
- average lesion score ([3]; 100 mg/kg/day gavage, day 9): 0.9 ± 0.9
- average lesion score ([3]; 100 mg/kg/day gavage, day 10): 1.4 ± 1.2
- average lesion score ([3]; 100 mg/kg/day gavage, day 11): 1.0 ± 1.3
- average lesion score ([3]; 100 mg/kg/day gavage, day 12): 1.1 ± 1.3
- average lesion score ([3]; 100 mg/kg/day gavage, day 13): 0.8 ± 0.9
- average lesion score ([3]; 100 mg/kg/day gavage, day 14): 0.7 ± 0.9
- average lesion score ([3]; 200 mg/kg/day gavage, Grand Ave. (Days 3-14)): 0.6 ± 0.3
- average lesion score ([3]; 200 mg/kg/day gavage, day 3): 0.1 ± 0.2
- average lesion score ([3]; 200 mg/kg/day gavage, day 4): 0.1 ± 0.2
- average lesion score ([3]; 200 mg/kg/day gavage, day 5): 0.4 ± 0.5
- average lesion score ([3]; 200 mg/kg/day gavage, day 6): 0.2 ± 0.3
- average lesion score ([3]; 200 mg/kg/day gavage, day 7): 0.4 ± 0.5
- average lesion score ([3]; 200 mg/kg/day gavage, day 8): 0.7 ± 0.6
- average lesion score ([3]; 200 mg/kg/day gavage, day 9): 0.9 ± 0.7
- average lesion score ([3]; 200 mg/kg/day gavage, day 10): 1.0 ± 0.6
- average lesion score ([3]; 200 mg/kg/day gavage, day 11): 0.7 ± 0.7
- average lesion score ([3]; 200 mg/kg/day gavage, day 12): 0.7 ± 0.7
- average lesion score ([3]; 200 mg/kg/day gavage, day 13): 0.8 ± 0.7
- average lesion score ([3]; 200 mg/kg/day gavage, day 14): 0.7 ± 0.7
- activity in vaginitis model ([3]; 5% cream topical): very effective
- average lesion score ([3]; acyclovir 5% cream topical, Grand Ave. (Days 3-14)): 0.3 ± 0.2
- average lesion score ([3]; acyclovir 5% cream topical, day 3): 0.1 ± 0.1
- average lesion score ([3]; acyclovir 5% cream topical, day 4): 0.1 ± 0.1
- average lesion score ([3]; acyclovir 5% cream topical, day 5): 0.1 ± 0.2
- average lesion score ([3]; acyclovir 5% cream topical, day 6): 0.2 ± 0.2
- average lesion score ([3]; acyclovir 5% cream topical, day 7): 0.2 ± 0.2
- average lesion score ([3]; acyclovir 5% cream topical, day 8): 0.2 ± 0.3
- average lesion score ([3]; acyclovir 5% cream topical, day 9): 0.2 ± 0.2
- average lesion score ([3]; acyclovir 5% cream topical, day 10): 0.6 ± 0.8
- average lesion score ([3]; acyclovir 5% cream topical, day 11): 0.5 ± 0.7
- average lesion score ([3]; acyclovir 5% cream topical, day 12): 0.3 ± 0.6
- average lesion score ([3]; acyclovir 5% cream topical, day 13): 0.3 ± 0.6
- average lesion score ([3]; acyclovir 5% cream topical, day 14): 0.3 ± 0.6
- Mean Day to Death ([3]; ACV 25 mg/kg): 10.4 ± 2.5
- Mean Day to Death ([3]; ACV 50 mg/kg): 11.3 ± 2.1
- Mean Day to Death ([3]; ACV 100 mg/kg): 12.0 ± 1.4
- Mean Day to Death ([3]; ACV 200 mg/kg): 11.3 ± 2.5
- EC65 (HSV-1; Human alphaherpesvirus 1, Vero, read-out: dose required to inhibit cytopathogenicity by 65%): 0.97 µM
- EC50 (HSV-1; Human alphaherpesvirus 1, read-out: in vitro ED50): 7 µM
- EC (60 or 70) (HSV-2): 1.95 µM
